Measured values as given in patent US10308938B2, “Compositions and methods to activate or inhibit toll-like receptor signaling” (priority 2014, dated 2019).
Entries after “also recorded” stand apart in the source; their conditions may differ.

Assays:
Type in all cases: cell-based, human
NFAT1 = NFAT1 dephosphorylation, Western blot; conditions: 0, 45 and 90 minutes; confirmed with phospho-specific antibody, 40 minutes
Procedure: Western blotting. Total protein extracts were isolated with M-PER protein extraction kit (Thermo Scientific) and quantified with a BCA kit (Thermo Scientific). 20 μg of protein extract were loaded per lane, separated on a 10% SDS-PAGE gel and transferred to a nitrocellulose membrane. anti-NFAT1 and anti-β-actin were obtained from Cell Signaling Technology. Anti-pNFAT1 (Ser213/217/229) antibody was obtained from Santa Cruz Biotechnology (Dallas, Tex.). Primary antibodies were detected by secondary anti-rabbit-HRP-conjugated (Cell Signaling Technology) and images were obtained in a CCD camera instrument. Bands were quantified with QuantityOne software.
An immediate consequence of increased concentration of intracellular calcium is the activation of the nuclear factor of activated T-cells (NFAT1), a transcription factor that is highly phosphorylated in resting cells and becomes dephosphorylated by the calcium/calmodulin-dependent phosphatase calcineurin when the concentration of intracellular calcium is increased. To examine whether IMQ stimulation induced the dephosphorylation of NFAT1, we stimulated CD4^+ T cells with IMQ and purified total protein extracts at 0, 45 and 90 minutes (FIG. 25A).

CD4^+ T cells [1] = experiment: Expression of activation markers on stimulated CD4+ T cells; conditions: 48 hours after activation
Source text: (§1) Cell activation and intracellular staining.

CD4^+ T cells [2] = experiment: Intracellular cytokine staining after PMA and ionomycin restimulation; conditions: increasing doses of IMQ; day 4, 4 hour PMA and ionomycin
Procedure: Cell activation and intracellular staining. T populations were stimulated with 1 μg/ml anti-CD3, 1 μg/ml anti-CD28 and 10 U/ml IL-2 in the presence or absence of TLR ligands. […] For both extracellular and intracellular stainings, LIVE/DEAD reagent (Molecular Probes) was used to exclude dead cells before surface staining. […] Samples were run on a BD Fortessa instrument and analyzed with FlowJo (TreeStar).

CD4^+ T cells [3] = experiment: Proliferation of CFSE-labeled CD4+ T cells stimulated with anti-CD3 and anti-CD28 in the presence of TLR ligands; conditions: compared to control
Source text: Cell isolation and FACS sorting of T cell populations. Peripheral blood mononuclear cells (PBMC) were isolated from healthy donors by Ficoll Hypaque gradient centrifugation. Total CD4^+ T cells were isolated by negative selection using CD4^+ T cell isolation kit (StemCell Technologies, Vancouver, BC) and stained for fluorescence-activated cell sorting (FACS) with the following antibodies: anti-CD45RO (clone UCHL1), CD45RA (clone H1100), CD25 (clone M-A251) (all from BD Biosciences) and CD127 (clone eBioRDR5) from eBioscience (San Diego, Calif.). The Treg (CD4^+CD25^hiCD127^low/neg) memory T cell (CD4^+CD45RA^−CD45RO^+CD25^low/neg+) and naïve T cell (CD4^+CD45RA^+CD45RO^−CD25^low/neg) populations were sorted on a FACS Aria (BD Biosciences). Unless specified, CD4^+ T cells used in the experiments were Treg-depleted CD4^+ T cells and they were sorted as CD4^+CD25^pos/lowCD127^+. The purity of the sorted CD4^+ T cell population was >98% as assessed by CD3 and CD4 staining after sort. CD14^+ cells were isolated by positive selection using EasySep™ Human CD14 Positive Selection Kit (StemCell Technologies).
as §1
While examining the costimulatory role of TLR on CD4^+ T cells, it was unexpectedly discovered that entry of CD4^+ cells into cell cycle with T cell receptor cross-linking and anti-CD28 was blocked by TLR7 engagement. Specifically, CD4^+ T cells were stimulated with anti-CD3 and anti-CD28 in the presence of different TLR agonists followed by analysis of proliferation and cytokine secretion.

CD4^+ T cells [4] = experiment: Phosphorylation status of signaling molecules by flow cytometry; Jun gene expression
Source text: TLR7 signaling has predominantly been studied in APC where it is linked to IRF7, NFκB and JNK activation through either MyD88/IRAK4-dependent or -independent pathways. In order to examine the consequences of TLR7 signaling on CD4^+ T cells in relation to ‘conventional’ TLR signaling, ex vivo isolated CD4^+ T cells from healthy individuals were stimulated with IMQ and the phosphorylation status of IRAK4, JNK, NFkB (p65), p38 MAPK and IRF7 was examined by flow cytometry (FIG. 31A). […] One of the targets that are phosphorylated by activated JNK is Jun, a component of AP-1, which is an essential transcription factor involved in costimulatory signal transduction. It was determined if inhibition of JNK activity by IMQ could explain, at least in part, the anergic phenotype observed in CD4^+ T cells after IMQ stimulation in the presence of full stimulation with TCR and costimulatory signals. To test this hypothesis, CD4^+ T cells were stimulated with PMA and Ionomycin in the presence or absence of IMQ, and the phosphorylation status of JNK and Jun was examined at different time points. NFκB and p38 were used as positive controls (FIGS. 31B and 31C).

memory T cells = experiment: IMQ pretreatment, washout, rest and restimulation with anti-CD3 and anti-CD28; conditions: IMQ 2 hours, 12 hours rest, anti-CD3 and anti-CD28
Procedure: (§2) Enzyme-linked immunosorbent assay.
To determine if pretreatment of CD4^+ T cells with IMQ would be sufficient to diminish their subsequent cytokine secretion and proliferative response to a full stimulation, memory T cells were pre-treated with IMQ for 2 hours and rested for 12 hours after washout to remove traces of IMQ and then stimulated with anti-CD3 and anti-CD28 for 3 days.

CD4^+ T cells [5] = experiment: Conversion into regulatory T cells (Foxp3 expression, IL-10 secretion)
Source text: as §1, §2

[6] = with PMA and Ionomycin stimulation
[7] = with PMA and Ionomycin stimulation, listed as IMQ

For `CC(C)Cn1cnc2c(N)nc3ccccc3c21` [Imiquimod], the “phosphorylation state of NFAT1” value (NFAT1) was “dephosphorylated”, the “expression of activation marker CD25” value (CD4^+ T cells [1]) was “inhibited” and the “expression of activation marker CD69” value (CD4^+ T cells [1]; listed as IMQ) was “inhibited; also recorded: decrease”. For the same molecule, the “expression of activation marker CD137” value (CD4^+ T cells [1]; listed as IMQ) was “inhibited; also recorded: decrease”, the “frequency of cytokine-producing cells” value (CD4^+ T cells [2]) was “diminished in a dose-dependent manner” and the “proliferation of CD4+ T cells (frequency of proliferating cells)” value (CD4^+ T cells [3]) was “dramatically reduced”. For the same molecule, the “phosphorylation of IRAK4” value (CD4^+ T cells [4]; IMQ alone vs vehicle) was “induced”, the “phosphorylation of IRF7” value (CD4^+ T cells [4]; IMQ alone vs vehicle) was “induced” and the “phosphorylation of NFκB” value (CD4^+ T cells [4]; IMQ alone vs vehicle) was “induced”. The “phosphorylation of p38” value (CD4^+ T cells [4]; IMQ alone vs vehicle) was “induced”, the “phosphorylated JNK” value (CD4^+ T cells [4]; IMQ alone vs vehicle, basal levels) was “decreased the basal levels” and the Jun gene expression (CD4^+ T cells [4]; after stimulation) was “decreased”. For the same molecule, the NFκB phosphorylation (CD4^+ T cells [4]; [6]) was “did not show an additive effect”, the p38 phosphorylation levels (CD4^+ T cells [4]; [6]) was “further increased” and the JNK phosphorylation (CD4^+ T cells [4]; [7]) was “inhibited; also recorded: decreased”. For the same molecule, the Jun phosphorylation (CD4^+ T cells [4]; [7]) was “decreased”, the “IFNγ production after restimulation” value (memory T cells) was “significantly decreased” and the “IL-2 production after restimulation” value (memory T cells) was “significantly decreased”. The IL-10 secretion (CD4^+ T cells [5]; ELISA day 3) was “neither Foxp3 expression (FIG. 11B-11C) or IL-10 secretion was increased” and the Foxp3 expression (CD4^+ T cells [5]; day 4) was “neither Foxp3 expression (FIG. 11B-11C) or IL-10 secretion was increased”.
